Patent US20050239656A1, “Pyridine compounds or salts thereof and herbicides containing the same” (priority 2002, published 2005)

Assays:
barnyardgrass [1] = experiment: Test Example 1: foliage treatment, upland pot test; assay type: in vivo, Echinochloa crus-galli L.; conditions: active ingredient 500 g/ha, observed 18th to 23rd day, 0 = non-treated, 100 = complete kill
In short: (§1)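 Crops and weeds were sown in upland soil pots and sprayed post-emergence at set leaf stages (soybean 0.1–0.4, wheat 1.3–2.4, rice 1.2–2.6, barnyardgrass 1.3–2.8). Formulated compound was applied in 500 L/ha water with 0.1% spreader. Growth control (0–100%) was rated visually 18–23 days later.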

japanese ribbon wapato = experiment: Test Example 3: paddy pot test, application under submerged conditions; assay type: in vivo, Sagittaria pygniaea; conditions: submerged application at primary leaf stage, visually observed 14 days after application, 0 = non-treated, 100 = complete kill
In short: (§2)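 Barnyardgrass and japanese bulrush sown in flooded paddy soil in greenhouse pots, japanese ribbon wapato tubers planted 1–2 days later; water depth kept at 3–4 cm. Diluted wettable powder or emulsifiable concentrate applied into water at 0.5-leaf or primary-leaf stage at set active-ingredient doses. Growth control scored visually at 14 days, 0 (untreated) to 100% (complete kill).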

soybean [2] = experiment: Test Example 1: foliage treatment, upland pot test; assay type: in vivo, Glycine max Merr.; conditions: crop, active ingredient 500 g/ha, observed 18th to 23rd day, 0 = non-treated, 100 = complete kill
In short: as §1

green foxtail [3] = experiment: Test Example 1: foliage treatment, upland pot test; assay type: in vivo, Setaria viridis L.; conditions: active ingredient 500 g/ha, observed 18th to 23rd day, 0 = non-treated, 100 = complete kill
soybean [4] = experiment: Test Example 2: soil surface treatment, upland pot test; assay type: in vivo, Glycine max Merr.; conditions: active ingredient 500 g/ha, observed 20th to 28th day
In short: (§3)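 Sowing, then next-day soil-surface spray of formulated test compound (fixed a.i. amount, 1,500 L/ha spray volume); visual evaluation of growth inhibition, 0–100%, three to four weeks (days 20–28) after application.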

redroot pigweed [5] = experiment: as above; assay type: in vivo, Amaranthus retroflexus L.; conditions: active ingredient 500 g/ha, observed 20th to 28th day
In short: as §3

corn [6] = experiment: Test Example 1: foliage treatment, upland pot test; assay type: in vivo, Zea mays L.; conditions: crop, active ingredient 500 g/ha, observed 18th to 23rd day, 0 = non-treated, 100 = complete kill
In short: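 Corn seeds were sown in upland field soil held in a 1/170,000 ha pot and grown to the 2.1 to 3.2 leaf stage. A wettable powder or emulsifiable concentrate of the test compound was diluted with water at 500 L/ha, given 0.1% (v/v) agricultural spreader, and sprayed onto the foliage with a small sprayer. Growth controlling degree (%) was scored visually 18th to 23rd days later, from 0 (non-treated) to 100 (complete kill).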

redroot pigweed [7] = experiment: Test Example 1: foliage treatment, upland pot test; assay type: in vivo, Amaranthus retroflexus L.; conditions: active ingredient 500 g/ha, observed 18th to 23rd day, 0 = non-treated, 100 = complete kill
japanese bulrush = experiment: Test Example 3: paddy pot test, application under submerged conditions; assay type: in vivo, Scirpus juncoides; conditions: submerged application at 0.5 leaf stage, visually observed 14 days after application, 0 = non-treated, 100 = complete kill
In short: as §2

prickly sida [8] = experiment: Test Example 2: soil surface treatment, upland pot test; assay type: in vivo, Sida spinosa L.; conditions: active ingredient 500 g/ha, observed 20th to 28th day
In short: as §3

velvetleaf [9] = experiment: Test Example 1: foliage treatment, upland pot test; assay type: in vivo, Abutilon theophrasti MEDIC.; conditions: active ingredient 500 g/ha, observed 18th to 23rd day, 0 = non-treated, 100 = complete kill
rice (var. Nihonbare) = experiment: Test Example 3: paddy pot test, transplanted rice; assay type: in vivo, Oryza sativa L.; conditions: applied 4th day after transplantation, visually observed 21st day after application, 0 = non-treated, 100 = complete kill
In short: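 Rice (var. Nihonbare) at 2 leaf stage transplanted 3 cm deep into puddled paddy soil under 3–4 cm flooding; on day 4 after transplanting, diluted wettable powder or emulsifiable concentrate applied by pipette under submerged conditions at a set active-ingredient dose. Growth scored visually 21 days after application, 0 (untreated) to 100 (complete kill) %.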

crabgrass [10] = experiment: Test Example 2: soil surface treatment, upland pot test; assay type: in vivo, Digitaria sanguinalis L.; conditions: active ingredient 500 g/ha, observed 20th to 28th day
In short: as §3

corn [11] = experiment: as above; assay type: in vivo, Zea mays L.; conditions: active ingredient 500 g/ha, observed 20th to 28th day
In short: as §3

barnyardgrass [12] = experiment: Test Example 3: paddy pot test, application under submerged conditions; assay type: in vivo, Echinochloa crus-galli L.; conditions: submerged application at 0.5 leaf stage, visually observed 14 days after application, 0 = non-treated, 100 = complete kill
In short: as §2

velvetleaf [13] = experiment: Test Example 2: soil surface treatment, upland pot test; assay type: in vivo, Abutilon theophrasti MEDIC.; conditions: active ingredient 500 g/ha, observed 20th to 28th day
In short: as §3

rice [14] = experiment: as above; assay type: in vivo, Oryza sativa L.; conditions: active ingredient 500 g/ha, observed 20th to 28th day
In short: as §3

barnyardgrass [15] = experiment: as above; assay type: in vivo, Echinochloa crus-galli L.; conditions: active ingredient 500 g/ha, observed 20th to 28th day
In short: as §3

rice [16] = experiment: Test Example 1: foliage treatment, upland pot test; assay type: in vivo, Oryza sativa L.; conditions: crop, active ingredient 500 g/ha, observed 18th to 23rd day, 0 = non-treated, 100 = complete kill
In short: as §1

green foxtail [17] = experiment: Test Example 2: soil surface treatment, upland pot test; assay type: in vivo, Setaria viridis L.; conditions: active ingredient 500 g/ha, observed 20th to 28th day
In short: as §3

prickly sida [18] = experiment: Test Example 1: foliage treatment, upland pot test; assay type: in vivo, Sida spinosa L.; conditions: active ingredient 500 g/ha, observed 18th to 23rd day, 0 = non-treated, 100 = complete kill
crabgrass [19] = experiment: Test Example 1: foliage treatment, upland pot test; assay type: in vivo, Digitaria sanguinalis L.; conditions: active ingredient 500 g/ha, observed 18th to 23rd day, 0 = non-treated, 100 = complete kill

Compound | Growth controlling degree (%) Barnyardgrass (barnyardgrass [1]) [%] | Growth controlling degree (%) Soybean (soybean [2]) [%] | Growth controlling degree (%) Green foxtail (green foxtail [3]) [%] | Growth controlling degree (%) Soyabean (soybean [4]) [%] | Growth controlling degree (%) Redroot pigweed (redroot pigweed [5]) [%] | Growth controlling degree (%) Corn (corn [6]) [%] | Growth controlling degree (%) Redroot pigweed (redroot pigweed [7]) [%] | Growth controlling degree (%) Prickly sida (prickly sida [8]) [%] | Growth controlling degree (%) Velvetleaf (velvetleaf [9]) [%] | Growth controlling degree (%) Crabgrass (crabgrass [10]) [%] | Growth controlling degree (%) Corn (corn [11]) [%] | Growth controlling degree (%) Velvetleaf (velvetleaf [13]) [%] | Growth controlling degree (%) Rice (rice [14]) [%] | Growth controlling degree (%) Barnyardgrass (barnyardgrass [15]) [%] | Growth controlling degree (%) Rice (rice [16]) [%] | Growth controlling degree (%) Green foxtail (green foxtail [17]) [%] | Growth controlling degree (%) Prickly sida (prickly sida [18]) [%] | Growth controlling degree (%) Crabgrass (crabgrass [19]) [%] | Growth controlling degree (%) Japanese ribbon wapato (japanese ribbon wapato; active ingredient 125 g/ha) [%] | Growth controlling degree (%) Japanese bulrush (japanese bulrush; active ingredient 125 g/ha) [%] | other results
CC(C)C(c1cnccc1C(F)(F)F)N(C)C(=O)Cc1ccc(F)c(C(F)(F)F)c1 (stereo not drawn) [I-61] | 30 | 70 | 90 | 20 | 70 | 30 | 70 | 98 | 80 | 80 | 10 | 60 | 10 | 20 | 30 | 70 | 80 | 80 | – | – | Growth controlling degree (%) Japanese ribbon wapato (japanese ribbon wapato; active ingredient 250 g/ha): 20%; Growth controlling degree (%) Japanese bulrush (japanese bulrush; active ingredient 250 g/ha): 0%; Growth controlling degree (%) Rice (rice (var. Nihonbare); active ingredient 250 g/ha): 10%; Growth controlling degree (%) Barnyardgrass (barnyardgrass [12]; active ingredient 250 g/ha): 95%
CC(C)C(c1cnccc1C(F)(F)F)N(C)C(=O)Cc1ccc(C(F)(F)F)c(F)c1 (stereo not drawn) [I-62] | 20 | 30 | 40 | 10 | 70 | 10 | 80 | 98 | 90 | 98 | 10 | 50 | 10 | 60 | 10 | 60 | 70 | 60 | – | – | Growth controlling degree (%) Japanese ribbon wapato (japanese ribbon wapato; active ingredient 250 g/ha): 0%; Growth controlling degree (%) Japanese bulrush (japanese bulrush; active ingredient 250 g/ha): 30%; Growth controlling degree (%) Rice (rice (var. Nihonbare); active ingredient 250 g/ha): 20%; Growth controlling degree (%) Barnyardgrass (barnyardgrass [12]; active ingredient 250 g/ha): 98%
CC(C)C(c1cnccc1Cl)N(C)C(=O)Cc1cccc(F)c1 (stereo not drawn) [I-65] | 10 | 20 | 10 | 0 | 50 | 0 | 90 | 10 | 70 | 90 | 30 | 10 | 20 | 60 | 20 | 60 | 80 | 60 | 60 | 90 | Growth controlling degree (%) Rice (rice (var. Nihonbare); active ingredient 125 g/ha): 0%; Growth controlling degree (%) Barnyardgrass (barnyardgrass [12]; active ingredient 125 g/ha): 98%
CC(C)C(c1cnccc1Cl)N(C)C(=O)Cc1ccccc1F (stereo not drawn) [I-66] | 20 | 50 | 70 | 50 | 60 | 40 | 50 | 30 | 70 | 90 | 10 | 40 | 40 | 80 | 10 | 50 | 60 | 70 | 10 | 90 | Growth controlling degree (%) Rice (rice (var. Nihonbare); active ingredient 125 g/ha): 10%; Growth controlling degree (%) Barnyardgrass (barnyardgrass [12]; active ingredient 125 g/ha): 98%
CC(C)C(c1cnccc1Cl)N(C)C(=O)Cc1ccc(F)cc1 (stereo not drawn) [I-67] | 50 | 50 | 70 | 10 | 40 | 0 | 60 | 80 | 60 | 95 | 40 | 60 | 10 | 90 | 10 | 95 | 80 | 90 | 60 | 98 | Growth controlling degree (%) Rice (rice (var. Nihonbare); active ingredient 125 g/ha): 0%; Growth controlling degree (%) Barnyardgrass (barnyardgrass [12]; active ingredient 125 g/ha): 100%
CC(C)C(c1cnccc1Cl)N(C)C(=O)Cc1ccc(C(F)(F)F)cc1 (stereo not drawn) [I-69] | 10 | 60 | 30 | 40 | 50 | 60 | 70 | 80 | 95 | 98 | 20 | 20 | 10 | 95 | 10 | 85 | 80 | 90 | 40 | 70 | Growth controlling degree (%) Rice (rice (var. Nihonbare); active ingredient 125 g/ha): 0%; Growth controlling degree (%) Barnyardgrass (barnyardgrass [12]; active ingredient 125 g/ha): 95%
